Source: paper PMC8292346, “Dysfunction of the key ferroptosis-surveilling systems hypersensitizes mice to tubular necrosis during acute kidney injury” (Nature Communications, 2021)
Values joined by “and” are separate entries in the source; they are usually repeats but may differ in a detail not shown here. Equal values may be shown once. Read-outs that look alike come from different tables or passages of the source.

What was measured:
NMDA = assay: Off-target radioligand binding screen; details: Nec-1f 10 µM
M1(h) = M1(h) (Homo sapiens, UniProt P11229); assay: Off-target radioligand binding screen; details: read-out: M1(h) ($): inhibition of radioligand binding
A2A(h) = A2A(h) (Homo sapiens, UniProt P29274); assay: Off-target radioligand binding screen; details: read-out: A2A(h) (#): inhibition of radioligand binding
A2A(h), sequence (P29274 whole entry): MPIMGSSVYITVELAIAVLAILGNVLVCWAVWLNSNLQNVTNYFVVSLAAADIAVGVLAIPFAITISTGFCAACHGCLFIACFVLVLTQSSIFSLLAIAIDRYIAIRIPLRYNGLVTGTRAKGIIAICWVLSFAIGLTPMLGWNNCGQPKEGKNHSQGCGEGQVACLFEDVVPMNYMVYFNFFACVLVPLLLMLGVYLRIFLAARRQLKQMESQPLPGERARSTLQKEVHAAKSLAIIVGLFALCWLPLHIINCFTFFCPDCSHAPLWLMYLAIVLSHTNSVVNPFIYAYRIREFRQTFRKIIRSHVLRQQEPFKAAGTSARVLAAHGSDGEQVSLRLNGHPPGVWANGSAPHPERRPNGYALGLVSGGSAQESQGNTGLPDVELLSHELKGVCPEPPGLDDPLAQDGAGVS

5-HT1A(h) = 5-HT1A(h) (Homo sapiens, UniProt P08908); assay: Off-target radioligand binding screen; details: read-out: 5-HT1A(h) (#): inhibition of radioligand binding
5-HT1A(h), sequence (P08908 whole entry): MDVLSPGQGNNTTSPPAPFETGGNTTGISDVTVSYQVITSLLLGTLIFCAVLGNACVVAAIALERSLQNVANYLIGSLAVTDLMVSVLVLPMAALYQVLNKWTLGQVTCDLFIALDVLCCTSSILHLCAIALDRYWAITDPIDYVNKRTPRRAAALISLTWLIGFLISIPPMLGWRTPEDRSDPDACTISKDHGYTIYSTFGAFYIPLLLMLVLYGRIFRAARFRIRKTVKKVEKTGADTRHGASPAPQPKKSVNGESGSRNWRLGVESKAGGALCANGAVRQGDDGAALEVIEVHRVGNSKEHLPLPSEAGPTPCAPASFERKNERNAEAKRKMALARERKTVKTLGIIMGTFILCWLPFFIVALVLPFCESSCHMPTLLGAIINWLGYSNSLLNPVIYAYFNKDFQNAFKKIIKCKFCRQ

CB2(h) = CB2(h) (Homo sapiens, UniProt P34972); assay: Off-target radioligand binding screen; details: read-out: CB2(h) (#): inhibition of radioligand binding
CB2(h), sequence (P34972 whole entry): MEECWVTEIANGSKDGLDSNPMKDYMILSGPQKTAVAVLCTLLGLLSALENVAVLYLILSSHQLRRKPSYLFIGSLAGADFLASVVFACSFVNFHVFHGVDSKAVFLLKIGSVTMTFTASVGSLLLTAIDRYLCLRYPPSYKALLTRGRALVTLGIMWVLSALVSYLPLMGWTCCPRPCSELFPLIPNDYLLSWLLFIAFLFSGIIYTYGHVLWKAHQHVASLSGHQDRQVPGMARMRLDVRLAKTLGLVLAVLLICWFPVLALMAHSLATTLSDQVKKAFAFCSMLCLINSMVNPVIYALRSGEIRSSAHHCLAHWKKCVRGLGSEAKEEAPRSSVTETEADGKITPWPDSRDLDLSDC

[1] = target: norepinephrine transporter(h) (Homo sapiens, UniProt P23975); assay: Off-target radioligand binding screen; details: read-out: norepinephrine transporter(h) ($): inhibition of radioligand binding
norepinephrine transporter(h), sequence (P23975 whole entry): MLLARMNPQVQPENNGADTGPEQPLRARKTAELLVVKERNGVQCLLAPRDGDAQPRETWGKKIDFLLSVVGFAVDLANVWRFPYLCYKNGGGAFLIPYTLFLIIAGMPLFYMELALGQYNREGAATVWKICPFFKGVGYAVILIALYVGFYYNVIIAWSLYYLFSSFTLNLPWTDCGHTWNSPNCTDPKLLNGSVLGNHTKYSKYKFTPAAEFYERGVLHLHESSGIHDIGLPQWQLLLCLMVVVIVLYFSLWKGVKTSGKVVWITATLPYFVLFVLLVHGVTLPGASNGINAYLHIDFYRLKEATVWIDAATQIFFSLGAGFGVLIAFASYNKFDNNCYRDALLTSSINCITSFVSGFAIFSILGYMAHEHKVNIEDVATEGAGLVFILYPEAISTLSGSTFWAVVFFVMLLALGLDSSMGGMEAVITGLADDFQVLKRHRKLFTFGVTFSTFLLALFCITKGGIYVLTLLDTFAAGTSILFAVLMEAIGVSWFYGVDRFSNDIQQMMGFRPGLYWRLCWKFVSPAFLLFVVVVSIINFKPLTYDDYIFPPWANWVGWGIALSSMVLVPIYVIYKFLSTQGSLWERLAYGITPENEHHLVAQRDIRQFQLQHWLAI

M2 (h) = M2 (h) (Homo sapiens, UniProt P08172); assay: Off-target radioligand binding screen; details: read-out: M2 (h) ($): inhibition of radioligand binding
CCK1 (CCKA) (h) = CCK1 (CCKA) (h) (Homo sapiens, UniProt P32238); assay: Off-target radioligand binding screen; details: read-out: CCK1 (CCKA) (h) (#): inhibition of radioligand binding
α2A(h) = α2A(h) (Homo sapiens, UniProt P08913); assay: Off-target radioligand binding screen; details: read-out: α2A(h) ($): inhibition of radioligand binding
β2(h) = β2(h) (Homo sapiens, UniProt P07550); assay: Off-target radioligand binding screen; details: read-out: β2(h) ($): inhibition of radioligand binding
β2(h), sequence (P07550 whole entry): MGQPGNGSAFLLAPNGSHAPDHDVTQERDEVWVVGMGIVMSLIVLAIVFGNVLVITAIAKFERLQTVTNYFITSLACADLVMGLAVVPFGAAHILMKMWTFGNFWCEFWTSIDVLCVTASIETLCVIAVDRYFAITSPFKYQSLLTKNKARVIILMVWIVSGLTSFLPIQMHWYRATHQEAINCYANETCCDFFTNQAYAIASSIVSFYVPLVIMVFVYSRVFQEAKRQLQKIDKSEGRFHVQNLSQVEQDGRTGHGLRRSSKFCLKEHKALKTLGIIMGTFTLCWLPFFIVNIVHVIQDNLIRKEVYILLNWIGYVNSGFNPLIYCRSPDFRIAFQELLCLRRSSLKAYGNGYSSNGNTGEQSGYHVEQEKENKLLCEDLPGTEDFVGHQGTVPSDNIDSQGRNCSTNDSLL

5-HT transporter (h) = 5-HT transporter (h) (Homo sapiens, UniProt P31645); assay: Off-target radioligand binding screen; details: read-out: 5-HT transporter (h) ($): inhibition of radioligand binding
kappa (h) (KOP) = kappa (h) (KOP) (Homo sapiens, UniProt P41145); assay: Off-target radioligand binding screen; details: read-out: kappa (h) (KOP) (#): inhibition of radioligand binding
[2] = both, microsomes, 2 µM, pH 7.4
N neuronal α4β2 (h) = N neuronal α4β2 (h) (Homo sapiens, UniProt P17787+P43681); assay: Off-target radioligand binding screen; details: read-out: N neuronal α4β2 (h) (#): inhibition of radioligand binding
C57BL/6N mice = assay: Acute oxalate nephropathy (CaOx-induced AKI); format: in vivo, mouse; details: sodium oxalate, 1.65 mg/kg Nec-1f, individual animals
D2S(h) = D2S(h) (Homo sapiens, UniProt P14416); assay: Off-target radioligand binding screen; details: read-out: D2S(h) (#): inhibition of radioligand binding
D2S(h), sequence (P14416 1-414 isoform P14416-2): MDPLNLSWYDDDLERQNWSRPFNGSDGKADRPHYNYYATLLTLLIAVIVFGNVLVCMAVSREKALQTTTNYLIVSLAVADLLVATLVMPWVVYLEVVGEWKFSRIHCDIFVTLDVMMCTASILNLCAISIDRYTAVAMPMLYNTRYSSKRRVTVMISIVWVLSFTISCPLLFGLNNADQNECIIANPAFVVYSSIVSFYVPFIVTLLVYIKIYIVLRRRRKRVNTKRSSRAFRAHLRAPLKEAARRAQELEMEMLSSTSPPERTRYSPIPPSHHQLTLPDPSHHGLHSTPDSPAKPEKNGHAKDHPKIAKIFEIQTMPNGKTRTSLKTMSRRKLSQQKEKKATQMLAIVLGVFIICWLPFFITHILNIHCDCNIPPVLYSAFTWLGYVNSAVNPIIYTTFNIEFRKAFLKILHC

5-HT2A(h) = 5-HT2A(h) (Homo sapiens, UniProt P28223); assay: Off-target radioligand binding screen; details: read-out: 5-HT2A(h) (#): inhibition of radioligand binding
CB1(h) = CB1(h) (Homo sapiens, UniProt P21554); assay: Off-target radioligand binding screen; details: read-out: CB1(h) (#): inhibition of radioligand binding
B6 LysM-GFP mice = assay: Intravital two-photon imaging of neutrophils in transplanted hearts; format: in vivo, mouse; details: heart transplantation, recipient mice 2.0 mg/kg body weight
Description: Hearts harvested from wild-type C57BL/6 mice were transplanted into the right neck of syngeneic LysM-GFP hosts, as previously described. […] Intravital two-photon imaging was performed using a custom-built microscope running ImageWarp version 2.1 acquisition software (A&B Software). For time-lapse imaging of cell trafficking, we averaged 15 video-rate frames (0.5 s per slice) during the acquisition. Each plane represents an image of 220 × 240 μm in the x and y dimensions and twenty-one sequential planes were acquired in the z dimension (2.5-μm each). Each individual neutrophil was tracked from its first appearance in the imaging window and followed up to the time point at which it dislocated more than 20 μm from its starting position. Fifty microlitres PBS containing 15 μl 655-nm nontargeted Q-dots (Thermo Fisher Scientific) were injected prior to imaging to visualize coronary vessels and assess whether neutrophils were intravascular or extravascular. The number of extravascular neutrophils was divided by the sum of intravascular and extravascular neutrophils to calculate extravasation. Imaris (Bitplane) was used for multidimensional rendering and manual cell tracking.

ETA(h) = ETA(h) (Homo sapiens, UniProt P25101); assay: Off-target radioligand binding screen; details: read-out: ETA(h) (#): inhibition of radioligand binding
ETA(h), sequence (P25101 21-427): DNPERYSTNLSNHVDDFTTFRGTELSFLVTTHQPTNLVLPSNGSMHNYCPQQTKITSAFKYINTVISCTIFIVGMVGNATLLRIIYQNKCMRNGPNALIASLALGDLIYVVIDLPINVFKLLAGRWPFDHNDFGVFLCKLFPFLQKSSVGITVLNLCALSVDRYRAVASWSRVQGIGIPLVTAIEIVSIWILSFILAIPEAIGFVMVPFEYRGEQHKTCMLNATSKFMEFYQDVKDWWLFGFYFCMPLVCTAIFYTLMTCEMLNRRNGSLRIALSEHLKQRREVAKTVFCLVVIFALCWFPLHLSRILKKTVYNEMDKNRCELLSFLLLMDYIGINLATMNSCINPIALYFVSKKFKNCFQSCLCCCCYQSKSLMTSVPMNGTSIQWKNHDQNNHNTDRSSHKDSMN

H2(h) = H2(h) (Homo sapiens, UniProt P25021); assay: Off-target radioligand binding screen; details: read-out: H2(h) ($): inhibition of radioligand binding
H2(h), sequence (P25021 whole entry): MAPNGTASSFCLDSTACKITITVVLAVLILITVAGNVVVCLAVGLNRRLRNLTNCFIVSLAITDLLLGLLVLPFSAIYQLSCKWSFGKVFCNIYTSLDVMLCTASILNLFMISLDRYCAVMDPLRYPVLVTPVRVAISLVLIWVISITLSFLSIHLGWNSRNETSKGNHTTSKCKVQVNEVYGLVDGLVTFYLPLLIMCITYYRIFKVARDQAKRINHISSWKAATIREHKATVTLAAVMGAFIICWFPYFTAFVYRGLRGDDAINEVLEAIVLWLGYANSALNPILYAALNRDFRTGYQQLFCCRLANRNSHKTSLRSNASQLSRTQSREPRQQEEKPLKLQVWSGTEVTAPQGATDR

5-HT1B (h) = 5-HT1B (h) (Homo sapiens, UniProt P28222); assay: Off-target radioligand binding screen; details: read-out: 5-HT1B (h) ($): inhibition of radioligand binding
5-HT1B (h), sequence (P28222 whole entry): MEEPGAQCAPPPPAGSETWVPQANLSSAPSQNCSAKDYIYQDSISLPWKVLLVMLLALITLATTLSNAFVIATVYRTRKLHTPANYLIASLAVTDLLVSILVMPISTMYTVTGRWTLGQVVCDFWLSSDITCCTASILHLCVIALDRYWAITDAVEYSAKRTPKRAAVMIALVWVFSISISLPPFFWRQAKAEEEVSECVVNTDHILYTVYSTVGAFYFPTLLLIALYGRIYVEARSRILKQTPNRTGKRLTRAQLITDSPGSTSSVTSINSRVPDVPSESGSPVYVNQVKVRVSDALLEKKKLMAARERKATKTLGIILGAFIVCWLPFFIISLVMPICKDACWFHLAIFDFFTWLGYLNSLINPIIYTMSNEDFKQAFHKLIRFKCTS

BZD (central) = assay: Off-target radioligand binding screen; details: Nec-1f 10 µM
[3] = target: Potassium Channel hERG (human) (Homo sapiens, UniProt Q12809); assay: Off-target radioligand binding screen; details: Nec-1f 10 µM
Potassium Channel hERG (human), sequence (Q12809 whole entry): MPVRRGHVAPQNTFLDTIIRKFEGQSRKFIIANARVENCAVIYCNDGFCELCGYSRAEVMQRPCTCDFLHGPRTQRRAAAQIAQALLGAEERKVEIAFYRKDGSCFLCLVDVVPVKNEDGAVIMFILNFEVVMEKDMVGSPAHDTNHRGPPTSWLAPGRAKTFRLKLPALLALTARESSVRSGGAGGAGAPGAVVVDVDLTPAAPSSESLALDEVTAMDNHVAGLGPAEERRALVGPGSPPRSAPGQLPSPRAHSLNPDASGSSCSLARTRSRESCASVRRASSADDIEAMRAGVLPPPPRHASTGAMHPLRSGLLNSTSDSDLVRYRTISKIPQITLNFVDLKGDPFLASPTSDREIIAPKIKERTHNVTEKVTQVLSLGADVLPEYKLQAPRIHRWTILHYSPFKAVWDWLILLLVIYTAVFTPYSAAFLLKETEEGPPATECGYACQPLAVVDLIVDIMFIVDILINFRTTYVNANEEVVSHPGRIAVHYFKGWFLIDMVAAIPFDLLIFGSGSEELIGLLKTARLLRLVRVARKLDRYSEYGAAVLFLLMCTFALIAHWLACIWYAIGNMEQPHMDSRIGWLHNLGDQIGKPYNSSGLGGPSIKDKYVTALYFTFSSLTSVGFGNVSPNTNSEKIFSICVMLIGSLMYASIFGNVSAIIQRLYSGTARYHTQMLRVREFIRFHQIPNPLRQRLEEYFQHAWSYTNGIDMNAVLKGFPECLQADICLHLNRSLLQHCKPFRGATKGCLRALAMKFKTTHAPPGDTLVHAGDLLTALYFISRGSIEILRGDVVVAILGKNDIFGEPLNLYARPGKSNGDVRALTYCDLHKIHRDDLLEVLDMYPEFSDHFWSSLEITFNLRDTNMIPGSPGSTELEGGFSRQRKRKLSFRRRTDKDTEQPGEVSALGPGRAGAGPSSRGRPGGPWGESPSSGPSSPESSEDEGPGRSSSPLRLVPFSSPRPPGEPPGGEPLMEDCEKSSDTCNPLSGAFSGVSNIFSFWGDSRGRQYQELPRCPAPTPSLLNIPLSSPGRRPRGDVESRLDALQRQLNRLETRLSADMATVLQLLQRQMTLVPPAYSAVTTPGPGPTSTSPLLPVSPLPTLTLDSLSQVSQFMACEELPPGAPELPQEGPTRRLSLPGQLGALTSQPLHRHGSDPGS

AR(h) = assay: Off-target radioligand binding screen; details: Nec-1f 10 µM
α1A(h) = α1A(h) (Homo sapiens, UniProt P35348); assay: Off-target radioligand binding screen; details: read-out: α1A(h) ($): inhibition of radioligand binding

With `CN1C(=O)C(Cc2c[nH]c3c(Cl)cccc23)NC1=S` (stereo not drawn) [Nec-1f] as the molecule, how does the “NMDA ($): inhibition of radioligand binding” value (NMDA) read?
Its value is 1.4%.

What about the inhibition at 10 µM (M1(h)) of the same molecule?
Its inhibition at 10 µM is -7.3%.

What about the inhibition at 10 µM (A2A(h)) of the same molecule?
Its inhibition at 10 µM is -0.3%.

What about the inhibition at 10 µM (5-HT1A(h)) of the same molecule?
Its inhibition at 10 µM is 9.1%.

What about the inhibition at 10 µM (CB2(h)) of the same molecule?
Its inhibition at 10 µM is -12.8%.

What about the inhibition at 10 µM [1] of the same molecule?
The inhibition at 10 µM was 7.3%.

And the inhibition at 10 µM (M2 (h))?
Its inhibition at 10 µM is -1.7%.

What about the inhibition at 10 µM (CCK1 (CCKA) (h)) of the same molecule?
Its inhibition at 10 µM is 28.3%.

What about the inhibition at 10 µM (α2A(h)) of the same molecule?
Its inhibition at 10 µM is -2%.

What about the inhibition at 10 µM (β2(h)) of the same molecule?
Its inhibition at 10 µM is 1.4%.

And the inhibition at 10 µM (5-HT transporter (h))?
The inhibition at 10 µM was -5.9%.

What about the inhibition at 10 µM (kappa (h) (KOP)) of the same molecule?
Its inhibition at 10 µM is 16%.

What about the “Human microsomal stability, parent compound remaining” value ([2]; 0 h) of the same molecule?
Its value is 100%.

What about the “Human microsomal stability, parent compound remaining” value ([2]; 7 min) of the same molecule?
The value was 80%.

And the “Human microsomal stability, parent compound remaining” value ([2]; 0.25 h)?
The value was 65%.

What about the “Human microsomal stability, parent compound remaining” value ([2]; 25 min) of the same molecule?
The value was 48%.

And the “Human microsomal stability, parent compound remaining” value ([2]; 40 min)?
Its value is 34%.

What about the inhibition at 10 µM (N neuronal α4β2 (h)) of the same molecule?
The inhibition at 10 µM was 3.6%.

And the “CaOx deposition score [1-10] (Pizzolato staining)” value (C57BL/6N mice)?
Its value is 3 and 6 and 4.

What about the inhibition at 10 µM (D2S(h)) of the same molecule?
Its inhibition at 10 µM is 4.8%.

What about the inhibition at 10 µM (5-HT2A(h)) of the same molecule?
Its inhibition at 10 µM is -2.8%.

What about the inhibition at 10 µM (CB1(h)) of the same molecule?
The inhibition at 10 µM was -24.7%.

What about the “Density of neutrophils” value (B6 LysM-GFP mice) of the same molecule?
The value was “highly significant decreases”.

What about the “Extravasation of neutrophils” value (B6 LysM-GFP mice) of the same molecule?
Its value is “highly significant reductions”.

What about the “Neutrophil rolling velocities” value (B6 LysM-GFP mice) of the same molecule?
Its value is “significant increases”.

And the “Rate of neutrophil recruitment to the graft” value (B6 LysM-GFP mice)?
Its value is “did not alter”.

What about the inhibition at 10 µM (ETA(h)) of the same molecule?
The inhibition at 10 µM was 0.9%.

And the inhibition at 10 µM (H2(h))?
The inhibition at 10 µM was -27.4%.

And the inhibition at 10 µM (5-HT1B (h))?
The inhibition at 10 µM was -12.9%.

And the “BZD (central) (#): inhibition of radioligand binding” value (BZD (central))?
The value was -4.6%.

And the “Potassium Channel hERG (human)- [3H] Dofetilide: inhibition of radioligand binding” value [3]?
Its value is -2.7%.

What about the “AR(h) (#): inhibition of radioligand binding” value (AR(h)) of the same molecule?
Its value is 12.2%.

What about the inhibition at 10 µM (α1A(h)) of the same molecule?
Its inhibition at 10 µM is 4.8%.
